According to ChEMBL document CHEMBL5537143, “Synthesis and antimicrobial properties of guanidine-functionalized labdane type diterpenoids” (Eur J Med Chem, 2024):
≈ marks a conversion by molar mass, not a printed value.

Key:
Klebsiella pneumoniae [1] = assay: Antimicrobial activity against Klebsiella pneumoniae ATCC BAA1705 assessed as inhibition of microbial growth incubated for 24 hrs by broth-microdilution assay; assay type: functional
[2] = tested on: Staphylococcus epidermidis; assay: Antimicrobial activity against Staphylococcus epidermidis ATCC 12228 assessed as inhibition of microbial growth incubated for 24 hrs by broth-microdilution assay; assay type: functional; conditions: for MIC: Staphylococcus epidermidis
[3] = tested on: Staphylococcus epidermidis; assay: Antimicrobial activity against Staphylococcus epidermidis ATCC 35984 assessed as inhibition of microbial growth incubated for 24 hrs by broth-microdilution assay; assay type: functional; conditions: for MIC: Staphylococcus epidermidis
Pseudomonas aeruginosa [4] = assay: Antimicrobial activity against Pseudomonas aeruginosa ATCC 27853 assessed as inhibition of microbial growth incubated for 24 hrs by broth-microdilution assay; assay type: functional; conditions: for MIC: Pseudomonas aeruginosa, ATCC 27853, read-out: MIC100
Staphylococcus aureus [5] = assay: Antimicrobial activity against Staphylococcus aureus ATCC 43300 assessed as inhibition of microbial growth incubated for 24 hrs by broth-microdilution assay; assay type: functional; conditions: for MIC: Staphylococcus aureus, ATCC 43300, read-out: MIC100
Pseudomonas aeruginosa [6] = assay: Antimicrobial activity against Pseudomonas aeruginosa PAO1 assessed as inhibition of microbial growth incubated for 24 hrs by broth-microdilution assay; assay type: functional; conditions: for MIC: Pseudomonas aeruginosa, PAO1, read-out: MIC100
Candida albicans [7] = assay: Antifungal activity against Candida albicans ATCC 10231 assessed as reduction in fungal growth incubated for 48 hrs by CLSI based analysis; assay type: functional; conditions: read-out: MIC100
Candida albicans [8] = assay: Antifungal activity against Candida albicans ATCC 90028 assessed as reduction in fungal growth incubated for 48 hrs by CLSI based analysis; assay type: functional
Staphylococcus aureus [9] = assay: Antimicrobial activity against Staphylococcus aureus ATCC 29213 assessed as inhibition of microbial growth incubated for 24 hrs by broth-microdilution assay; assay type: functional; conditions: for MIC: Staphylococcus aureus, ATCC 29213, read-out: MIC100
Klebsiella pneumoniae [10] = assay: Antimicrobial activity against Klebsiella pneumoniae ATCC 13883 assessed as inhibition of microbial growth incubated for 24 hrs by broth-microdilution assay; assay type: functional
[11] = Acute toxicity in zebrafish embryo assessed as mortality rate at 16 microg/ml preincubated with compound for 24 hrs and measured after 24 hrs post fertilization; parameters: species or system Danio rerio; conditions: in vivo, at 16 µg/mL
[12] = Acute toxicity in zebrafish embryo preincubated with compound for 24 hrs and measured after 24 hrs post fertilization; parameters: species or system Danio rerio; conditions: in vivo
[13] = Acute toxicity in zebrafish embryo assessed as mortality rate at 16 microg/ml preincubated with compound for 24 hrs and measured after 48 to 72 hrs post fertilization; parameters: species or system Danio rerio; conditions: in vivo, at 16 µg/mL
[14] = Acute toxicity in zebrafish embryo assessed as mortality rate at 2 microg/ml preincubated with compound for 24 hrs and measured after 96 hrs post fertilization; parameters: species or system Danio rerio; conditions: in vivo, at 2 µg/mL
Candida albicans [15] = assay: Synergistic antifungal activity against Candida albicans ATCC 10231 assessed as fractional inhibitory concentration index incubated for 48 hrs in presence of Voriconazole by CLSI based analysis; assay type: functional
[16] = Acute toxicity in zebrafish embryo assessed as mortality rate at 4 microg/ml preincubated with compound for 24 hrs and measured after 96 hrs post fertilization; parameters: species or system Danio rerio; conditions: in vivo, at 4 µg/mL
Klebsiella pneumoniae [17] = assay: Synergistic antimicrobial activity against Klebsiella pneumoniae ATCC BAA1705 assessed as inhibition of microbial growth incubated for 24 hrs in presence of Imipenem by checkerboard assay; assay type: functional; conditions: read-out: MIC100
[18] = Acute toxicity in zebrafish embryo preincubated with compound for 24 hrs and measured after 96 hrs post fertilization; parameters: species or system Danio rerio; conditions: in vivo
Candida albicans [19] = assay: Synergistic antifungal activity against Candida albicans ATCC 10231 assessed as reduction in fungal growth incubated for 48 hrs in presence of Voriconazole by CLSI based analysis; assay type: functional; conditions: read-out: MIC100
[20] = Acute toxicity in zebrafish embryo assessed as mortality rate at 8 microg/ml preincubated with compound for 24 hrs and measured after 24 hrs post fertilization; parameters: species or system Danio rerio; conditions: in vivo, at 8 µg/mL
Candida albicans [21] = assay: Synergistic antifungal activity against Candida albicans ATCC 10231 assessed as Voriconazole MIC incubated for 48 hrs by CLSI based analysis; assay type: functional; conditions: read-out: MIC100
Staphylococcus aureus [22] = assay: Antimicrobial activity against Staphylococcus aureus 29213 assessed as inhibition of microbial growth incubated for 24 hrs by broth-microdilution assay; assay type: functional
Staphylococcus aureus [23] = assay: Antimicrobial activity against methicillin resistant Staphylococcus aureus 43300 assessed as inhibition of microbial growth incubated for 24 hrs by broth-microdilution assay; assay type: functional
Staphylococcus aureus [24] = assay: Synergistic antimicrobial activity against methicillin resistant Staphylococcus aureus 43300 assessed as Oxacillin MIC incubated for 24 hrs by checkerboard assay; assay type: functional; conditions: read-out: MIC100
[25] = Acute toxicity in zebrafish embryo preincubated with compound for 24 hrs and measured after 48 to 72 hrs post fertilization; parameters: species or system Danio rerio; conditions: in vivo
Klebsiella pneumoniae [26] = assay: Synergistic antimicrobial activity against Klebsiella pneumoniae ATCC BAA1705 assessed as fractional inhibitory concentration index incubated for 24 hrs in presence of Imipenem by checkerboard assay; assay type: functional
Klebsiella pneumoniae [27] = assay: Antimicrobial activity against Carbapenem -resistant Klebsiella pneumoniae ATCC 13883 assessed as inhibition of microbial growth incubated for 24 hrs by broth-microdilution assay; assay type: functional
Klebsiella pneumoniae [28] = assay: Antimicrobial activity against Carbapenem-resistant Klebsiella pneumoniae ATCC BAA1705 assessed as inhibition of microbial growth incubated for 24 hrs by broth-microdilution assay; assay type: functional
[29] = Acute toxicity in zebrafish embryo assessed as mortality rate at 0.7 microg/ml preincubated with compound for 24 hrs and measured after 96 hrs post fertilization; parameters: species or system Danio rerio; conditions: in vivo, at 0.7 µg/mL
Staphylococcus aureus [30] = assay: Synergistic antimicrobial activity against methicillin resistant Staphylococcus aureus 43300 assessed as inhibition of microbial growth incubated for 24 hrs in presence of Oxacillin by checkerboard assay; assay type: functional; conditions: read-out: MIC100
[31] = Acute toxicity in zebrafish embryo assessed as mortality rate at 32 microg/ml preincubated with compound for 24 hrs and measured after 24 hrs post fertilization; parameters: species or system Danio rerio; conditions: in vivo, at 32 µg/mL
Klebsiella pneumoniae [32] = assay: Synergistic antimicrobial activity against Klebsiella pneumoniae ATCC BAA1705 assessed as Imipenem MIC incubated for 24 hrs by checkerboard assay; assay type: functional; conditions: read-out: MIC100
Staphylococcus aureus [33] = assay: Synergistic antimicrobial activity against methicillin resistant Staphylococcus aureus 43300 assessed as fractional inhibitory concentration index incubated for 24 hrs in presence of Oxacillin by checkerboard assay; assay type: functional
[34] = Acute toxicity in zebrafish embryo assessed as mortality rate at 4 microg/ml preincubated with compound for 24 hrs and measured after 48 to 72 hrs post fertilization; parameters: species or system Danio rerio; conditions: in vivo, at 4 µg/mL
[35] = Acute toxicity in zebrafish embryo assessed as mortality rate at 8 microg/ml preincubated with compound for 24 hrs and measured after 48 to 72 hrs post fertilization; parameters: species or system Danio rerio; conditions: in vivo, at 8 µg/mL
[36] = Acute toxicity in zebrafish embryo assessed as mortality rate at 8 microg/ml preincubated with compound for 24 hrs and measured after 96 hrs post fertilization; parameters: species or system Danio rerio; conditions: in vivo, at 8 µg/mL
[37] = Acute toxicity in zebrafish embryo assessed as mortality rate at 16 microg/ml preincubated with compound for 24 hrs and measured after 96 hrs post fertilization; parameters: species or system Danio rerio; conditions: in vivo, at 16 µg/mL
Pseudomonas aeruginosa [38] = assay: Antimicrobial activity against Pseudomonas aeruginosa PAO1 assessed as inhibition of microbial growth at 128 microg/ml incubated for 24 hrs by broth-microdilution assay relative to control; assay type: functional
Pseudomonas aeruginosa [39] = assay: Antimicrobial activity against Pseudomonas aeruginosa 27853 assessed as inhibition of microbial growth at 128 microg/ml incubated for 24 hrs by broth-microdilution assay relative to control; assay type: functional
[40] = Acute toxicity in zebrafish embryo assessed as mortality rate at 32 microg/ml preincubated with compound for 24 hrs and measured after 96 hrs post fertilization; parameters: species or system Danio rerio; conditions: in vivo, at 32 µg/mL
[41] = Acute toxicity in zebrafish embryo assessed as mortality rate at 4 microg/ml preincubated with compound for 24 hrs and measured after 24 hrs post fertilization; parameters: species or system Danio rerio; conditions: in vivo, at 4 µg/mL

In the case of GENTAMICIN, the MIC100 (Klebsiella pneumoniae [1]) is reported as 4 µg/mL.

For `CC1(C)CCC[C@]2(C)[C@H]3CC[C@](C)(CC(=O)O)O[C@]3(C)CC[C@@H]12`, the MIC70 [2] was 64 µg/mL, the MIC70 [3] was 64 µg/mL and the MIC (Pseudomonas aeruginosa [4]) was > 128 µg/mL. The MIC70 (Staphylococcus aureus [5]) was 64 µg/mL, the MIC (Pseudomonas aeruginosa [6]) was > 128 µg/mL and the MIC (Klebsiella pneumoniae [1]; read-out: MIC100) was > 128 µg/mL. For the same compound, the MIC (Candida albicans [7]) was > 128 µg/mL, the MIC (Candida albicans [8]; read-out: MIC100) was > 128 µg/mL and the MIC70 (Staphylococcus aureus [9]) was 64 µg/mL. The MIC (Klebsiella pneumoniae [10]; read-out: MIC100) was > 128 µg/mL.

Work on `CC1(C)CCC[C@]2(C)[C@H]3CC[C@](C)(CC(=O)NC(=N)N)O[C@]3(C)CC[C@@H]12` yielded a mortality at 24 h, 16 microg/ml [11] of 75%, an LC50 at 24 h [12] of 14 µg/mL (≈ 38.5 µM) and a mortality at 16 microg/ml [13] of 100%. For the same compound, the mortality at 96 h, 2 microg/ml [14] was 0%, the “fractional inhibitory concentration index (FICI)” value (Candida albicans [15]) was 0.254 and the mortality at 96 h, 4 microg/ml [16] was 5%. It also gave an MIC (Klebsiella pneumoniae [17]) of 16 µg/mL, an LC50 at 96 h [18] of 6 µg/mL (≈ 16.5 µM) and an MIC (Candida albicans [19]) of 4 µg/mL. It also gave an MIC ([2]; ATCC 12228, read-out: MIC) of 4 µg/mL, a mortality at 24 h, 8 microg/ml [20] of 15% and an MIC (Candida albicans [21]) of 0.125 µg/mL. For the same compound, the MIC (Staphylococcus aureus [22]) was 4 µg/mL, the MIC (Staphylococcus aureus [23]; read-out: MIC) was 4 µg/mL and the MIC ([3]; ATCC 35984, read-out: MIC) was 4 µg/mL. For the same compound, the MIC (Staphylococcus aureus [24]) was 0.125 µg/mL, the MIC70 (Pseudomonas aeruginosa [4]) was 128 µg/mL and the MIC (Staphylococcus aureus [5]) was 8 µg/mL. The MIC75 (Pseudomonas aeruginosa [6]) was 128 µg/mL, the LC50 at 24 h [25] was 8.1 µg/mL (≈ 22.3 µM) and the “fractional inhibitory concentration index (FICI)” value (Klebsiella pneumoniae [26]) was 0.6. It also gave an MIC (Klebsiella pneumoniae [1]; read-out: MIC) of 32 µg/mL, an MIC (Klebsiella pneumoniae [27]) of 32 µg/mL and an MIC (Klebsiella pneumoniae [28]) of 32 µg/mL. The mortality at 96 h, 0.7 microg/ml [29] was 0%, the MIC (Candida albicans [7]) was 16 µg/mL (≈ 44 µM) and the MIC (Staphylococcus aureus [30]) was 4 µg/mL. For the same compound, the mortality at 24 h, 32 microg/ml [31] was 95%, the MIC (Klebsiella pneumoniae [32]) was 2 µg/mL and the MIC (Candida albicans [8]; read-out: MIC) was 16 µg/mL (≈ 44 µM). For the same compound, the “fractional inhibitory concentration index (FICI)” value (Staphylococcus aureus [33]) was 0.512, the mortality at 4 microg/ml [34] was 0% and the mortality at 24 h, 8 microg/ml [35] was 35%. For the same compound, the mortality at 96 h, 8 microg/ml [36] was 95%, the mortality at 96 h, 16 microg/ml [37] was 100% and the inhibition at 128 µg/mL (Pseudomonas aeruginosa [38]) was 75%. It also gave an inhibition at 128 µg/mL (Pseudomonas aeruginosa [39]) of 70%, a mortality at 96 h, 32 microg/ml [40] of 100% and a mortality at 24 h, 4 microg/ml [41] of 0%. The MIC (Staphylococcus aureus [9]) was 8 µg/mL and the MIC (Klebsiella pneumoniae [10]; read-out: MIC) was 16 µg/mL.

With `C[C@@H](c1ncncc1F)[C@](O)(Cn1cncn1)c1ccc(F)cc1F` [VORICONAZOLE] the MIC (Candida albicans [7]) was ≥ 1 µg/mL and the MIC (Candida albicans [8]; read-out: MIC100) was ≤ 0.12 µg/mL.

In the case of `CC1(C)CCC[C@]2(C)[C@H]3CC[C@@](C)(CC(=O)O)O[C@]3(C)CC[C@@H]12`, the MIC ([2]; ATCC 12228, read-out: MIC100) is reported as 128 µg/mL, the MIC ([3]; ATCC 35984, read-out: MIC100) is reported as 128 µg/mL and the MIC (Pseudomonas aeruginosa [4]) is reported as > 128 µg/mL. For the same compound, the MIC (Staphylococcus aureus [5]) was > 128 µg/mL, the MIC (Pseudomonas aeruginosa [6]) was > 128 µg/mL and the MIC (Klebsiella pneumoniae [1]; read-out: MIC100) was > 128 µg/mL. For the same compound, the MIC (Candida albicans [7]) was > 128 µg/mL, the MIC (Candida albicans [8]; read-out: MIC100) was > 128 µg/mL and the MIC (Staphylococcus aureus [9]) was > 128 µg/mL. The MIC (Klebsiella pneumoniae [10]; read-out: MIC100) was > 128 µg/mL.

With `Cc1onc(-c2ccccc2)c1C(=O)N[C@@H]1C(=O)N2[C@@H]1SC(C)(C)[C@@H]2C(=O)O` [OXACILLIN] the MIC ([2]; ATCC 12228, read-out: MIC100) was 2 µg/mL, the MIC (Staphylococcus aureus [23]; read-out: MIC100) was 10 µg/mL and the MIC ([3]; ATCC 35984, read-out: MIC100) was 2 µg/mL. The MIC (Staphylococcus aureus [5]) was 2 µg/mL and the MIC (Staphylococcus aureus [9]) was 2 µg/mL.
